# Laboratory results taken from US5049559A, “Thieno-triazolo-diazepine derivatives useful as anti-ischemic agents” (priority 1989, dated 1991).
# Key:
# [1] = system: platelet aggregation induced by PAF; assay: Inhibition of platelet aggregation induced by PAF; type: cell-based; conditions: Oryctolagus cuniculus, male New Zealand rabbits, Table I
# Experimental: 1) Inhibition of platelet aggregation induced by PAF
# This experimentation was conducted according to the method of R. KINLOUGH. RATHBONE, J. P. CAZENAVE, M. PACKHAM and F. MUSTARD, Lab. Invest. 48, 98, 1980. In this test, New Zealand rabbits were used (male New Zealand rabbits of an average weight of 5 kg).
# The determinations are made on a chrono-log Coultronics aggregometer, at […] coupled with a graphic recorder; the results of these determinations (in molecular concentration) are reported on the table I on the central column.
# [2] = Global ischemia on gerbils; type: in vivo; conditions: Meriones unguiculatus, 168 h, carotides clamped 10 minutes, hippocampes one week later, 3H-PK 11195, percentage of protection compared to control
# Experimental: 3) Global ischemia on gerbils For this test, males gerbils were anaesthetized with brietal at the doses of 35 mg/kg IP; thereafter, both carotides were clamped for 10 minutes, then the clamping was released. Treated animals received each 10 mg/kg of the compounds of one of the examples. One week later, the animals were killed and both hippocampes were taken, weighed and frozen at -80° C. After crushing with 1 ml of TRIS-HCl pH 7.4 for 30 seconds, aliquots of each 50 μl of this preparation were incubed in each 1 ml of TRIS-HCl buffer containing ^3 H-PK 11195 at 2 nM (90 Ci/mmole, NENE, Germany) for 1 hour at 25° C. For each preparation, 3 determinations were made. The density of omega 3 sites (marked by the specific ^3 H-PK 11195 marker) are expressed in f-moles of PK 11195/mg of fresh tissues and converted in percentage of protection compared to control.
# benzodiazepine receptors = assay: Inhibition of the binding to benzodiazepine receptors; conditions: rat brains, 1 hour 30 minutes at 4° C., tracers 3H-RO-15-1788 and 3H-RO-5-4864, Table I, read-out: BDZ receptors
# From the text: 2) Inhibition of the binding to benzodiazepine receptors
# The interest of the previous experimentation depends on the results obtained in this experimentation: as a compound of the invention has a benzodiazepine like structure, it is important to check whether the specific benzodiazepine activity would not appear at the dose where platelet aggregation was inhibited.
# Therefore, this experimentation has been conducted according to the method of MOHLER H. and RICHARD J. G. Agonist and antagonist benzodiazepine receptor interaction in vitro, Nature, vol. 294, 763-765, 1981.
# This experimentation was conducted on rat brains incubated 1 hour 30 minutes at 4° C. using ^3 H-RO-15-1788 and ^3 H-RO-5-4864 (NEN) as tracers and […] and RO-5-4864 as reference antagonists.
# The results in molecular concentration are reported in the table I, on the right hand column.
SMILES,IC50 [1],inhibition in vivo at 10 mg/kg [2],IC50 (benzodiazepine receptors)
"COc1ccc(SCC(=S)N2CCc3c(sc4c3C(c3ccccc3Cl)=NCc3nnc(C)n3-4)C2)cc1 [Example 10, 6-(2-chlorophenyl)-9-(4-methoxyphenylthiomethyl-thiocarbonyl)-7,8,9, 10-tetrahydro-1-methyl-4H-pyrido [4',3':4,5] thieno [3,2-f] 1,2,4-triazolo[4,3-a] 1,4-diazepine]",171 nM,10.3%,66000 nM
"COc1ccc(SCC(=O)N2CCc3c(sc4c3C(c3ccccc3Cl)=NCc3nnc(C)n3-4)C2)cc1OC [Example 11, 6-(2-chlorophenyl)-9-(3,4-dimethoxyphenylthiomethyl-carbonyl)-7,8,9, 10-tetrahydro-1-methyl-4H-pyrido [4',3':4,5] thieno [3,2-f] 1,2,4-triazolo[4,3-a] 1,4-diazepine]",26.4 nM,46.5%,1400 nM
"COc1ccc(SCC(=S)N2CCc3c(sc4c3C(c3ccccc3Cl)=NCc3nnc(C)n3-4)C2)cc1OC [Example 12, 6-(2-chlorophenyl)-9-(3,4-dimethoxyphenylthiomethyl-thiocarbonyl)-7,8,9, 10-tetrahydro-1-methyl-4H-pyrido [4',3':4,5] thieno [3,2-f] 1,2,4-triazolo [4,3-a] 1,4-diazepine]",31.4 nM,34.1%,870 nM
"COc1cc(SCC(=O)N2CCc3c(sc4c3C(c3ccccc3Cl)=NCc3nnc(C)n3-4)C2)cc(OC)c1OC [Example 13, 6-(2-chlorophenyl)-9-(3,4,5-trimethoxyphenylthiomethylcarbonyl)-7,8,9, 10-tetrahydro-1-methyl-4H-pyrido [4',3':4,5] thieno [3,2-f] 1,2,4-triazolo[4,3-a] 1,4-diazepine]",18.5 nM,32.1%,55000 nM
"COc1cc(SCC(=S)N2CCc3c(sc4c3C(c3ccccc3Cl)=NCc3nnc(C)n3-4)C2)cc(OC)c1OC [Example 14, 6-(2-chlorophenyl)-9-(3,4,5-trimethoxyphenylthiomethyl-thiocarbonyl)-7,8,9, 10-tetrahydro-1-methyl-4H-pyrido [4',3':4,5] thieno [3,2-f] 1,2,4-triazolo [4,3-a] 1,4-diazepine]",9.22 nM,19.7%,1500 nM
"COc1ccc(SCC(=O)N2CCc3c(sc4c3C(c3ccccc3Cl)=NCc3nnc(C)n3-4)C2)c(OC)c1OC [Example 15, 6-(2-chlorophenyl)-9-(2,3,4-trimethoxyphenylthiomethyl-carbonyl)-7,8,9, 10-tetrahydro-1-methyl-4H-pyrido [4',3':4,5] thieno [3,2-f] 1,2,4-triazolo[4,3-a] 1,4-diazepine]",120 nM,35.8%,3600 nM
"COc1ccc(SCC(=S)N2CCc3c(sc4c3C(c3ccccc3Cl)=NCc3nnc(C)n3-4)C2)c(OC)c1OC [Example 16, 6-(2-chlorophenyl)-9-(2,3,4-trimethoxyphenylthiomethylthiocarbonyl)-7,8,9, 10-tetrahydro-1-methyl-4H-pyrido [4',3':4,5] thieno [3,2-f] 1,2,4-triazolo [4,3-a] 1,4-diazepine]",53.5 nM,29.3%,600 nM
"Cc1nnc2n1-c1sc3c(c1C(c1ccccc1Cl)=NC2)CCN(C(=O)CSc1ccc(C(C)(C)C)cc1)C3 [Example 17, 6-(2-chlorophenyl)-9-(4-t.butylphenylthiomethyl-carbonyl)-7,8,9, 10-tetrahydro-1-methyl-4H-pyrido [4',3':4,5] thieno [3,2-f] 1,2,4-triazolo[4,3-a] 1,4-diazepine]",8.75 nM,11.1%,4700 nM
"Cc1nnc2n1-c1sc3c(c1C(c1ccccc1Cl)=NC2)CCN(C(=S)CSc1ccc(C(C)(C)C)cc1)C3 [Example 18, 6-(2-chlorophenyl)-9-(4-t.butylphenylthiomethyl-thiocarbonyl)-7,8,9, 10-tetrahydro-1-methyl-4H-pyrido [4',3':4,5] thieno [3,2-f] 1,2,4-triazolo[4,3-a] 1,4-diazepine]",23 nM,12.6%,44100 nM
"Cc1nnc2n1-c1sc3c(c1C(c1ccccc1Cl)=NC2)CCN(C(=O)CSc1ccccc1C(F)(F)F)C3 [Example 19, 6-(2-chlorophenyl)-9-(2-trifluoromethylphenylthiomethylcarbonyl)-7,8,9, 10-tetrahydro-1-methyl-4H-pyrido [4',3':4,5] thieno [3,2-f] 1,2,4-triazolo[4,3-a] 1,4-diazepine]",6.36 nM,45.6%,270 nM
"Cc1nnc2n1-c1sc3c(c1C(c1ccccc1Cl)=NC2)CCN(C(=S)CSc1ccccc1C(F)(F)F)C3 [Example 20, 6-(2-chlorophenyl)-9-(2-trifluoromethylphenylthiomethylthiocarbonyl)-7,8,9, 10-tetrahydro-1-methyl-4H-pyrido [4',3':4,5] thieno [3,2-f] 1,2,4-triazolo [4,3-a] 1,4-diazepine]",146 nM,32.7%,1600 nM
"Cc1nnc2n1-c1sc3c(c1C(c1ccccc1Cl)=NC2)CCN(C(=O)CSc1cccc(C(F)(F)F)c1)C3 [Example 21, 6-(2-chlorophenyl)-9-(3-trifluoromethylphenylthiomethylcarbonyl)-7,8,9, 10-tetrahydro-1-methyl-4H-pyrido [4',3':4,5] thieno [3,2-f] 1,2,4-triazolo[4,3-a] 1,4-diazepine]",8.66 nM,34.1%,810 nM
"Cc1nnc2n1-c1sc3c(c1C(c1ccccc1Cl)=NC2)CCN(C(=S)CSc1cccc(C(F)(F)F)c1)C3 [Example 22, 6-(2-chlorophenyl)-9-(3-trifluoromethylphenylthiomethylthiocarbonyl)-7,8,9, 10-tetrahydro-1-methyl-4H-pyrido [4',3':4,5] thieno [3,2-f] 1,2,4-triazolo [4,3-a] 1,4-diazepine]",8.18 nM,48.1%,610 nM
"Cc1nnc2n1-c1sc3c(c1C(c1ccccc1Cl)=NC2)CCN(C(=O)CSc1ccc(C(F)(F)F)cc1)C3 [Example 23, 6-(2-chlorophenyl)-9-(4-trifluoromethylphenylthiomethylcarbonyl)-7,8,9, 10-tetrahydro-1-methyl-4H-pyrido [4',3':4,5] thieno [3,2-f] 1,2,4-triazolo[4,3-a] 1,4-diazepine]",12.4 nM,37.5%,1200 nM
"Cc1nnc2n1-c1sc3c(c1C(c1ccccc1Cl)=NC2)CCN(C(=S)CSc1ccc(C(F)(F)F)cc1)C3 [Example 24, 6-(2-chlorophenyl)-9-(4-trifluoromethylphenylthiomethylthiocarbonyl)-7,8,9, 10-tetrahydro-1-methyl-4H-pyrido [4',3':4,5] thieno [3,2-f] 1,2,4-triazolo [4,3-a] 1,4-diazepine]",32.7 nM,38.7%,3300 nM
"Cc1nnc2n1-c1sc3c(c1C(c1ccccc1Cl)=NC2)CCN(C(=O)CSc1ccc(F)cc1)C3 [Example 25, 6-(2-chlorophenyl)-9-(4-fluorophenylthiomethyl-carbonyl)-7,8,9, 10-tetrahydro-1-methyl-4H-pyrido [4',3':4,5] thieno [3,2-f] 1,2,4-triazolo[4,3-a] 1,4-diazepine]",11.3 nM,14.7%,630 nM
"Cc1nnc2n1-c1sc3c(c1C(c1ccccc1Cl)=NC2)CCN(C(=S)CSc1ccc(F)cc1)C3 [Example 26, 6-(2-chlorophenyl)-9-(4-fluorophenylthiomethyl-thiocarbonyl)-7,8,9, 10-tetrahydro-1-methyl-4H-pyrido [4',3':4,5] thieno [3,2-f] 1,2,4-triazolo[4,3-a] 1,4-diazepine]",6.56 nM,26.5%,610 nM
"Cc1nnc2n1-c1sc3c(c1C(c1ccccc1Cl)=NC2)CCN(C(=O)CSc1cccc(Cl)c1Cl)C3 [Example 27, 6-(2-chlorophenyl)-9-(2,3-dichlorophenylthiomethyl-carbonyl)-7,8,9, 10-tetrahydro-1-methyl-4H-pyrido [4',3':4,5] thieno [3,2-f] 1,2,4-triazolo[4,3-a] 1,4-diazepine]",8.45 nM,33.3%,48000 nM
